Paper PMC6158189, “A pharmacological probe identifies cystathionine β-synthase as a new negative regulator for ferroptosis” (Cell Death & Disease, 2018)

Test system: HEK293T cells
Experiment: cell viability (CellTiter 96 Aqueous One)
Assay type: cell-based
Settings: 24 h
Procedure: Fig. 4 CH004 arrests the cell cycle at the S phase. a CH004 reduces the cell viability of HEK293T and HepG2 cells. HEK293T or HepG2 cells were treated with indicated concentrations of CH004 for 24 h before the cell number was analyzed using the CellTiter96® Aqueous One Solution Cell Proliferation Assay (Promega, Materials and Methods). The means at each concentration of one representative experiment are shown as percentages of DMSO (control, 100%). Means ± SDs (n = 3). b Overexpression of hCBS or knock-down of hCBS counteracts the growth inhibition exerted by CH004 in HEK293T cells. Indicated HEK293T stable cell lines were treated with the CH004 or DMSO for 24 h. Then, the cell viability was quantified with the CellTiter 96® Aqueous One Solution Cell Proliferation Assay under the standard protocol (Promega). […] The efficacy for CBS overexpression and knock-down in HEK293T cells was determined by Western blotting using an anti-CBS antibody (3E1, 1:2000; Abnova). c CH004 induces cell death in HEK293T and HepG2 cells. […] HEK293T cells were incubated with indicated compounds for 12 h, and the DNA content was quantified with propidium iodide to analyze the cell cycle distribution by flow cytometry (e). The cell cycle distributions for HEK293T-shNT and HEK293T-shCBS cells were accordingly analyzed and are shown in f. […]

Which IC50 does the source give for `Cn1nc(Cc2ccccc2)nc2c(=O)n(C)c(=O)nc1-2` [CH004, 3-benzyl-1,6-dimethylpyrimido[5,4-e][1,2,4]triazine-5,7(1H,6H)-dione] here?
The IC50 was about 17 µM.

And the IC50 (Homo sapiens, HEK-293T)?
The IC50 was 16.6 ± 5.3 µM.
